From patent US10835572B2, “Composition for external application” (ROHTO PHARMACEUTICAL CO., LTD., priority 2014, dated 2020) come the findings set out here.

The structures appear in SMILES notation.

A short description of the data set: Discoloration on storage: rate of increase in ΔE*ab (color difference meter). In kind it is physicochemical. As to conditions: stored 4 days at 60° C. under protection from light; FIG. 4-8. As to the method: 20 ml aliquots of the compositions of the examples and comparative examples were filled into a glass bottle followed by determination of the initial ΔE*ab(0) value with a color difference meter (Spectrophotometer Model CM-5, Konica Minolta). At this time, purified water was used for the reference color. ΔE*ab(0) values are represented by the equation indicated below and used as an indicator to represent the degree of coloring of the compositions of the examples and comparative examples. ΔE*ab={(ΔL*)^2+(Δa*)^2+(Δb*)^2}^1/2 [Equation 1]
The L* value (ΔL*) is a value relating to lightness, the a* value (Δa*) is a value relating to red/green opponent colors in both directions, and the b* value (Δb*) is a value relating to blue/yellow opponent colors in both directions. The compositions of the aforementioned examples and comparative examples were each stored (under protection from light) at 40° C., 50° C. and 60° C. and then taken out after 4 days followed by determination of the ΔE*ab(4) value with the aforementioned color difference meter.
The rate of increase in the ΔE*ab values attributable to being stored for 4 days at the aforementioned temperatures was determined using the equation indicated below. The term “(D65)” in the equation indicates the use of Illuminant D65. Rate of increase in ΔE*ab(D65)=ΔE*ab(65)(4)/[…]

On to `O=C1O[C@H]([C@@H](O)CO)C(O)=C1O[C@H]1O[C@H](CO)[C@@H](O)[C@H](O)[C@H]1O` [ascorbyl glucoside], for which the “discoloration, rate of increase in ΔE*ab (in words)” value was “discoloration was determined to not occur”.
